Results taken from US10344266B2, “Cell mass capable of serving as a primitive organ-like structure comprised of a plurality of cell types of somatic origin” (priority 2006, dated 2019).

Columns and labels:
Type in all cases: cell-based, human
STAT-3 = assay: RT-PCR analysis (1) of cell mass, STAT-3; conditions: presence of BIO compared with absence, FIG. 7
Protocol: (§1) Hair papilla cells were prepared to P3 or more (with P1 indicating one round of subculturing) in the presence or absence of BIO loading, while keratinocytes were prepared up to and including P3.
(§2) Each of the cells was diluted with each medium following trypsin treatment so as to obtain 1×10^5 cells.
(§3) In the case of adding BIO (Calbiochem), the BIO was dissolved to 10 mM with dimethylsulfoxide (DMSO) and added to a concentration of 0.1 to 5 μM.
(§4) 25 to 35 μl of each culture medium was dispensed onto the inside of the upper lid of a square culture dish measuring 10 cm on a side and mixed to prepare dome-shaped droplets of a suitable size.
(§5) Three days later, the medium was replaced with the same medium as that used above.
(§6) After culturing for an additional four days, a portion of the medium was subjected to RT-PCR analysis (1) as described below. All of the remaining media was replaced with medium under conditions of the absence of BIO.
(§7) RNA was extracted from each sample using Trizol (Invitrogen). An equivalent of 200 ng of each RNA was reverse transcribed to cDNA with a reaction system consisting of 50 μl of RevTraACE (Toyobo). 1 μl of the resulting samples was applied to a PCR reaction in a 50 μl system using the primers listed below. […]

TWIST-1 = assay: RT-PCR analysis (1) of cell mass, TWIST-1; conditions: in the presence of BIO, ascribed to relative decrease of hair papilla cells, FIG. 7
Protocol: as §1, §2, §3, §4, §5, §6, §7

Wnt10B = Wnt10B RT-PCR, RT-PCR analysis (3), quantitative PCR of cell mass; conditions: FIG. 9
Protocol: Hair papilla cells were prepared to P3 (with P1 indicating one round of subculturing) in the absence of BIO loading, while outer root sheath cells were prepared up to and including P3.
(§8) Each of the cells was diluted with each medium following trypsin treatment so as to obtain 3×10^3 cells.
(§9) BIO (Calbiochem) was dissolved to 10 mM with dimethylsulfoxide (DMSO) and added to a concentration of 0.1 to 5 μM.
as §4
(§10) Three days later, the medium was replaced with the same medium as that used above. […]
RNA was extracted from the samples using Trizol (Invitrogen). […] 4 μl of the resulting samples were applied to a quantitative PCR system (LightCycler System, Roche) in a 20 μl system using the primers listed below. […]
All data was expressed as the relative expressed amount based on the expressed amount after 3 days in the case of not loading the cell mass with BIO. […] Accordingly, in this experimental system, differentiation of follicular epithelial cells (outer root sheath cells), and what is more, autonomous organogenesis were clearly determined to be induced by culturing in the presence of BIO followed by culturing after removing BIO.

Wnt3A = Wnt3A RT-PCR, RT-PCR analysis (2) of cell mass; conditions: FIG. 8
Protocol: Hair papilla cells were prepared to P3 (with P1 indicating one round of subculturing) in the presence of BIO loading, while keratinocytes were prepared up to and including P3.
as §8, §9, §4
Three days later, the medium was replaced with the same medium as that used above. The samples were collected on the 7th day and submitted for RT-PCR analysis (2) as described below (“0 day” in FIG. 8). The medium used for the same remaining cells was replaced with medium under conditions of the absence of BIO to induce differentiation, after which the samples collected on the 3rd day were submitted for RT-PCR analysis (2) as described below (“3 days” in FIG. 8).
RNA was extracted from the samples using Trizol (Invitrogen). […]
10 μl of the reaction solution was electrophoresed at 100 V in 2% agarose gel (Cosmobio)/TAE buffer. Target bands were detected after visualizing with ethidium bromide.

SHH (Sonic Hedge Hog) = assay: RT-PCR analysis (1) of cell mass, SHH; conditions: in the presence of BIO (same in its absence), FIG. 7
Protocol: as §1, §2, §3, §4, §5, §6, §7

[1] = system: cell mass of hair papilla cells and epidermal keratinocytes; assay: Immunohistofluorescent staining of hanging-drop cell mass (hair papilla cells and keratinocytes)
Protocol: 30% Advanced DMEM (Invitrogen), 2 mM L-glutamine, a mixture of penicillin and streptomycin (Invitrogen, 100-fold dilution) and 3.5 μl/50 ml of β-mercaptoethanol were mixed with Humedia KG-2 (Kurabo) at a ratio of 1:1.
as §3, §1, §2, §4, §10
In the color version of this diagram, green coloring by vimentin antibody and red coloring by CD49f antibody can be distinguished, and each were able to be determined to be hair papilla cells and keratinocytes, respectively. […] After the cell masses formed following the addition of BIO, red-staining keratinocytes were determined to be growing in a regular manner in the form of branches within cell masses cultured in the absence of BIO. […]

[2] = system: cell masses prepared with hair papilla cells and outer root sheath cells; assay: Immunohistofluorescent staining of cell mass prepared with hair papilla cells and outer root sheath cells
Protocol: Each of the cell masses obtained with the hanging drop method were fixed for 5 minutes with 0.1% paraformaldehyde and submitted for staining. In addition, a portion of the cell masses were embedded in OCT solution without fixing and prepared into frozen sections with a cryostat followed by immunohistostaining.
Blocking was carried out for 6 hours with PBS(−) containing 13% bovine serum albumin (BSA).
Each of the primary antibodies indicated in the following table were diluted by 1/200 with the aforementioned PBS(−) containing 13% bovine serum albumin (BSA), added to each sample and allowed to react for 4 hours at 4° C.
The cells were washed three times with PBS(−) containing 0.02% Tween 20.
Fluorescent secondary antibody (see Excel file) diluted by 1/200 with the aforementioned PBS(−) containing 13% bovine serum albumin (BSA) was added to each sample. In addition, the nuclei of the cells were stained blue with DAPI (4′-6-diamidino-2-phenylindole).
Antibody to cytokeratin 14 (K14) expressed in epidermal keratinocytes and outer root sheath cells is used for the purpose of confirming that these cells have not differentiated to hair roots (red). Since AE13 monoclonal antibody, which specifically reacts to hair keratin (Lynch et al., J. Cell Biol., 103, 2593, 1986), recognizes 44K/46K acidic hair keratin dimer, it is used to mark differentiation into hair roots (green). […]

Lef-1 = assay: RT-PCR analysis (1) of cell mass, Lef-1; conditions: in the presence of BIO (also detected in its absence), FIG. 7
Protocol: as §1, §2, §3, §4, §5, §6, §7

Versican gene = assay: RT-PCR analysis (1) of cell mass, Versican; conditions: in the presence of BIO, ascribed to relative decrease of hair papilla cells, FIG. 7
Protocol: as §1, §2, §3, §4, §5, §6, §7

O=C1Nc2cc(Br)ccc2/C1=C1/Nc2ccccc2/C1=N\O [BIO, (2′Z,3′E)-6-bromoindirubin-3′-oxime]
expression of STAT-3 gene (STAT-3): detected prominently | expression of TWIST-1 gene (TWIST-1): expression appearing to decrease | expression of Wnt10B, relative expressed amount (Wnt10B; after removing BIO (day 10 and day 14)): increased over time | expression of Wnt10B, relative expressed amount (Wnt10B; cultured in the presence of BIO (day 7), versus control cultured in the absence of BIO): about the same level as that of a control | expression of Wnt3A (Wnt3A; 3rd day after removal of BIO ("3 days")): expression of Wnt3A was observed | expression of Wnt3A (Wnt3A; cultured in the presence of BIO, 7th day ("0 day")): not being observed at all | expression of SHH gene (SHH (Sonic Hedge Hog)): not detected | staining for the proliferation marker, K167, in the cell mass ([1]; cell mass formed by adding BIO 0.1 to 5 μM, central portion and branch-like end portion, FIG. 3): positive | staining by AE13 antibody (hair keratin) ([1]; hair papilla cells and epidermal keratinocytes, stimulated with BIO, no staining without BIO, FIG. 5): staining is observed in some cell masses | immunostaining by Ber-EP4 antibody (hair buds) ([2]; hair papilla cells and outer root sheath cells stimulated with BIO, FIG. 6): clearly observed | staining by AE13 antibody (hair keratin) ([2]; hair papilla cells and outer root sheath cells, BIO stimulation versus absence of BIO, FIG. 5): considerably enhanced | expression of Lef-1 gene (Lef-1): detected | expression of Versican gene (Versican gene): expression appearing to decrease
